# Experimental data: US11331364B2, “Use for JNK inhibitor molecules for treatment of various diseases” (Xigen Inflammation Ltd., priority 2014, dated 2022)
# Square brackets hold non-standard residues; d marks the D form. Ends that are not written are not given here. Peptide text beside a SMILES is read from it.
# How the values were obtained:
# [1] = tested on: Imiquimod-induced psoriasis in mice; assay: Imiquimod-induced psoriasis, ear histopathology; format: in vivo, mouse; details: 10 mg/kg PO daily
# Method: Female BALB/cAnNCrl mice (Charles River, age 8 to 10 weeks at study start) have been assigned to the following groups (treatment schedule):
# In this experiment, two positive controls have been utilized. Firstly, Prednisolone at 10 mg/kg (vehicle: 1% Hydroxyethylcellulose, 0.25% Polysorbate 80, and 0.05% Antifoam in purified water) has been dosed daily and orally (group “Prednisolone”). Secondly, Dexamethasone has been administered at 0.5 mg/kg (vehicle: sterile 0.9% NaCl) on days 1, 4 and 7 via intravenous route.
# On day 8, animals have been sacrificed and the tissue (ear) has been fixed in 10% neutral buffered formalin. For histopathology hematoxylin-and-eosin-stained sections (cross cut) have been prepared and microscopic evaluation on the collected tissues from all animals has been performed. Methods and end-points for histopathology were similarly described in the van der Fits (2009) paper in that inflammation, epidermal hyperplasia, epidermal hyperkeratosis (rather than parakeratosis) were observed and recorded for severity grade, whereby the respective methodology from Van der Fits et al. (The Journal of Immunology 2009, 182, P. 5836-5845) is hereby incorporated by reference. Histopathology grading scores were excluded for either skin or ear in animals with secondary inflammatory processes (full thickness epidermal ulcers). Scores were averaged by group and standard deviation and statistical significance were calculated. […] Formalin-fixed, paraffin embedded skin from the dorsal surface of the mouse (BALB/c) was stained with hematoxylin and eosin (H&E) stain and assessed microscopically. An important difference from the above reference and to describe in more detail the observations of the present study: Hyperkeratosis can be defined specifically as orthokeratotic (no retained nuclei) or parakeratotic (retained nuclei). Either can occur normally in various anatomical locations and depending on species; however, both conditions are well defined in particular disease states. The van der Fits paper describes their Imiquimod (IMQ)-induced psoriasis model as causing parakeratotic hyperkeratosis similar to what is seen in the human condition, and that was a defined end-point for this study. However, the Danilenko et al. (Veterinary Pathology 2008 45:563) has shown that many rodent psoriasis models have orthokeratotic hyperkeratosis. […] The more general term ‘hyperkeratosis’ was used for grading end-points and describe in the text what type was seen (primarily orthokeratotic).
# Microscopic Histopathology end-points were graded as such: […]
# [2] = Stability (half-life) in human serum, UPLC-MS; details: human serum (10 and 50% in PBS; FIG. 5: 50%), 0.1 mM peptide
# Method: The experiment was performed as described by Tugyi et al. (Proc Natl Acad Sci USA, 2005, 413-418). The remaining intact peptide was quantified by UPLC-MS.
# [3] = tested on: acute CYP-induced cystitis in female Sprague-Dawley rats; assay: Cyclophosphamide-induced acute cystitis, intravesical treatment, visceral pain and bladder inflammation; format: in vivo, rat; details: 50 mg/mL, i.ves.
# Method: This preclinical model is well-used to test therapeutic approaches for the treatment of interstitial cystitis/painful bladder syndrome (IC/PBS).
# Animals were acclimatized to the laboratory conditions for at least 3 days before the start of any experiments. The animals were allocated to the following four experimental groups (n=10 animals per group):
# To induce acute cystitis, a single i.p. injection of CYP at a dose of 150 mg/kg in a final volume of 5 mL/kg was performed. Control rats received physiological saline under the same experimental conditions as CYP (final volume of 5 mL/kg, i.p.).
# On the day of each experiment, weight of rats was recorded.
# Standardized conditions including fixed time-of-day (a.m. to minimize the potential circadian variations in the behaviours responses) and single-experimenter testing of all animals were applied to minimize variability behavior-based pain testing. Visceral pain including allodynia and hyperalgesia was evaluated by applying to the lower abdomen, close to the urinary bladder, a set of 8 calibrated von Frey filaments of increasing forces (1, 2, 4, 6, 8, 10, 26 and 60 g) with an interstimulus interval of 5 seconds. Prior testing, the abdominal area designed for mechanical stimulation of each animal was shaved. Animals were then placed on a raised wire mesh floor under individual transparent Plexiglas box and acclimatized for at least 30 minutes before starting the von Frey test. Filaments were then applied 1-2 seconds through the mesh floor with enough strength to cause the filament to slightly bend. Each filament was tested 3 times. Care was taken to stimulate different areas within the lower abdominal region in the vicinity of the urinary bladder to avoid desensitization.
# Nociceptive behaviors were scored for each animal and each filament as follows:
# The study design is schematically shown in FIG. 50 A. Birefly, acute cystitis was induced by CYP injection (i.p.) at Do (as described above).
# Urinary bladders were rapidly collected and cleaned from lipoid tissue. Urinary bladders were weighed, cut at the bladder neck as well as oedema and haemorrhage scoring was performed (see table below). Finally, wall thickness was measured using a digital caliper by placing the bladder wall between the two outside jaws.
# [4] = tested on: Hela cells; assay: Internalization of transporter constructs, 24 hours, fluorescence of cell extracts; format: cell-based; details: FIG. 6; Y in position 2
# Method: The transporter sequences analyzed correspond to SEQ ID NOs: 52-94 plus SEQ ID NOs: 45, 47, 46, 43 and 99 (FIG. 6A) and SEQ ID NOs: 100-147 (FIG. 6B). […] Hela cells were incubated 24 hours in 96 well plate with […] of the respective transporters. The cells were then washed twice with an acidic buffer (0.2M Glycin, 0.15M NaCl, pH 3.0) and twice with PBS. Cells were broken by the addition of RIPA lysis buffer. The relative amount of internalized peptide was then determined by reading the fluorescence intensity (Fusion Alpha plate reader; PerkinElmer) of each extract followed by background subtraction.
# Hela cells were incubated 24 hours in 96 well plate with […] of the r3-L-TAT-derived transporters. The cells were then washed twice with an acidic buffer (0.2M Glycin, 0.15M NaCl, pH 3.0) and twice with PBS. Cells were broken by the addition of RIPA lysis buffer. The relative amount of internalized peptide was then determined by reading the fluorescence intensity (Fusion Alpha plate reader; PerkinElmer) of each extract followed by background subtraction
compound,measurement,setting,value
"C[C@]12C=CC(=O)C=C1CC[C@@H]1[C@@H]2[C@@H](O)C[C@@]2(C)[C@H]1CC[C@]2(O)C(=O)CO [Prednisolone, reference compound]",epidermal hyperkeratosis of the ear (average grades),[1],minimally decreased average grades
same,inflammation of the ear (average grade) vs vehicle-IMQ,[1],decreased inflammation of the ear
same,inflammation of the ear (average grade) vs vehicle-IMQ,[1]; listed as prednisolone,significant differences from the vehicle control group
"CC(C)C[C@H](NC(=O)[C@H](CC(N)=O)NC(=O)[C@H](CC(C)C)NC(=O)[C@@H](NC(=O)[C@@H](NC(=O)[C@@H]1CCCN1C(=O)[C@H](CCCNC(=N)N)NC(=O)[C@H](CCCCN)NC(=O)[C@@H]1CCCN1C(=O)[C@H](CCCNC(=N)N)NC(=O)[C@@H]1CCCN1C(=O)[C@@H]1CCCN1C(=O)[C@H](CCCNC(=N)N)NC(=O)[C@H](CCCNC(=N)N)NC(=O)[C@H](CCCNC(=N)N)NC(=O)[C@H](CCC(N)=O)NC(=O)[C@H](CCCNC(=N)N)NC(=O)[C@H](CCCNC(=N)N)NC(=O)[C@H](CCCCN)NC(=O)[C@H](CCCCN)NC(=O)[C@H](CCCNC(=N)N)NC(=O)CN)[C@@H](C)O)[C@@H](C)O)C(=O)N[C@@H](Cc1ccccc1)C(=O)N1CCC[C@H]1C(=O)N[C@@H](CCC(N)=O)C(=O)N[C@H](C(=O)N1CCC[C@H]1C(=O)N[C@@H](CCCNC(=N)N)C(=O)N[C@@H](CO)C(=O)N[C@@H](CCC(N)=O)C(=O)N[C@@H](CC(=O)O)C(N)=O)C(C)C [SEQ ID NO: 196, reference compound] (H-GRKKRRQRRRPPRPKRPTTLNLFPQVPRSQD-NH2)",time until totally degraded into amino acids residues,[2],≤ 6 h
"CC(C)Cc1ccc(C(C)C(=O)O)cc1 (centres unmarked) [ibuprofen, reference compound]",urine observation,[3],reddish urine was noticed for some animal
same,haemorrhage scores vs vehicle,[3]; 24 h after CYP,no significant change
same,nociceptive scores vs vehicle,[3]; 24 h after CYP,significant decrease
same,nociceptive threshold vs vehicle,[3]; 24 h after CYP,significantly increased
same,oedema scores vs vehicle,[3]; 24 h after CYP,significant decrease
same,urinary bladder wall thickness vs vehicle,[3]; 24 h after CYP,significant decrease
rYKRrQRRr ([dR]YKR[dR]QRR[dR]) [SEQ ID NO: 142],transporter activity,[4],highest transporter activity
